Measured values as given in patent publication US9975882B2, “Heteroaromatic compounds as BTK inhibitors” (Boehringer Ingelheim International GmbH, priority 2015, dated 2018).
Where two headings read alike, the source gives them in different places.

Assays:
[1] = target: human full length His-tagged BTK (Homo sapiens (Human), UniProt Q06187); assay: BTK Lanthscreen Eu Kinase Binding assay; settings: 2 nM BTK
Protocol: BTK Lanthscreen® Eu Kinase Binding Assay:
A Lanthscreen® Eu Kinase Binding assay (Life Technologies) is performed to quantitate the ability of test compounds to bind to BTK. The assay is based on the binding and displacement of Alexa Fluor647-labeled Kinase Tracer #236 to the ATP-binding site of human full length His-tagged BTK (Life Technologies cat #PV3587) with TR-FRET detection using a europium-labeled anti-His antibody. The assay is assembled in 384-well low volume NBS black plates (Corning) where 2 nM BTK and test compound in DMSO at varying concentrations are pre-incubated for 30 min at 28° C. in assay buffer consisting of 50 mM HEPES, pH 7.4, 10 mM MgCl2, 1 mM EGTA. 100 μM Na3VO4 and 0.01% Brij 35. Then, 2 nM of Eu-anti His antibody and 30 nM Kinase Tracer are added and incubated for 60 min at 28° C. Following incubation, TR-FRET signal is read on an Envision plate reader (Excitation: 340 nm; Emissions: 615 and 665 nm). The 665:615 nm emission ratio is calculated and converted to POC compared to control and blank wells.

[2] = system: BTK (IL-6 production in primary CD19+ B cells); assay: Inhibition of IL-6 production in B cells co-stimulated with ODN 2006 and anti-hIgD; assay type: cell-based; settings: B-cell, anti-human IgD + ODN 2006
Protocol: Inhibition of IL-6 Production in B Cells Co-Stimulated with ODN 2006 and anti-hIgD
Primary CD19+ B cells (AllCells #PB010F) are thawed and plated in RPMI containing 10% HI FBS in a 384-well tissue cultured plate at 20,000 cells/well. The cells are treated with test compound (0.5% DMSO final concentration) and incubated for 1 hour at 37° C., 5% CO2. Cells are then stimulated with 5 ug/mL Goat F(ab′)2 anti-human IgD (SouthernBiotech #2032) and 2 uM ODN 2006 (InvivoGen #tlrl-2006) and incubated for 18-24 hours at 37° C., 5% CO2. IL-6 in the supernatant is measured using Meso Scale Discovery kit #K211AKB-6.
(§1) Representative compounds of the present invention are tested and show BTK inhibition (Table I). […] Additionally, compounds of the present invention, as represented by examples in Table II, are selective for BTK inhibition over other related kinases. […] In this table the BTK activity is measured by IL-6 production in primary CD19^+ B cells, and the EGFR activity is measured by EGFR phosphorylation in A431 cells.

[3] = target: EGFR (EGFR phosphorylation in A431 cells) (Homo sapiens (Human), UniProt P00533); assay: Inhibition of EGFR autophosphorylation in A431 human epithelial cells stimulated with EGF; assay type: cell-based; settings: EGF 60 ng/mL, read-out: A431 p-EGFR IC50
Protocol: Inhibition of EGFR Autophosphorylation in A431 Human Epithelial Cells Stimulated with Epithelial Growth Factor
A431 cells (ATCC #CRL-1555 FZ) are thawed and plated in DMEM containing 10% FBS in a 384-well tissue culture treated plate at 15,000 cells/well. After incubating for 24 hours at 37° C., 5% CO2, the cells are treated with test compound (1% DMSO final concentration) and incubated for 16 hours at 37° C., 5% CO2. EGF (Millipore, 01-107) is added at a final concentration of 60 ng/mL and incubated for 10 minutes. The medium is removed, the cells are lysed, and phospho EGFR is measured (Meso Scale Diagnostics, N31CB-1).
as §1

[4] = target: human recombinant BTK (full length, His-tagged) (Homo sapiens (Human), UniProt Q06187); assay: BTK Z'-LYTE assay; assay type: biochemical; settings: 25 μM ATP;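 further: FRET readout of kinase phosphorylating a coumarin and fluorescein labelled synthetic peptide, detected via protease sensitivity of unphosphorylated versus phosphorylated substrate, incubated at 22 °C in 384-well plates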
Protocol: Z′-LYTE™ Assay (Life Technologies):
(§3) The Z′-Lyte assay employs a FRET-based, coupled-enzyme format and is based on the differential sensitivity of phosphorylated and non-phosphorylated peptides to proteolytic Cleavage. The activity of human recombinant BTK (full length, His-tagged), BMX (full length, His-tagged) or Txk (full length, GST-tagged) is estimated by measuring the phosphorylation of a synthetic FRET peptide substrate labeled with Coumarin and Fluorescein. […] Incubations are carried out at 22° C. in black polypropylene 384-well plates (Corning).
(§4) Representative compounds of the present invention are assessed for inhibition of BTK, BMX, and TXK measuring phosphorylation of a substrate (Z′-LYTE™ assay, Life Technologies) and TEC measuring displacement of a “tracer” (Lanthscreen® Eu Kinase Binding assay, Life Technologies).

[5] = target: human recombinant full length TEC (His-tagged) (Homo sapiens (Human), UniProt P42680); assay: TEC Lanthscreen Eu Kinase Binding assay; settings: 1 nM TEC
[6] = system: mean arterial pressure (MAP); settings: rat, in vivo, po
Protocol: In-Vivo Assay—Comparison Between the Compounds of the Present Invention and Comparative Compounds A, B and C
In a side-by-side in-vivo study, select compounds of the present invention and comparative compounds A-C are evaluated in telemetry-instrumented conscious rats to determine their effects on mean arterial pressure (MAP) at doses at or above therapeutically relevant concentrations.
(§2) All animals (telemetry-instrumented) are single housed in metabolic cages. Rats are acclimated to the metabolic cage for at least 3 days and then dosed with vehicle for up to 4 days. Blood pressure, heart rate, and bodyweight are collected during the baseline period and animals are randomized into 3 groups based on these parameters (n=8-9/group). Treatment groups are: vehicle and test compound (10 mg/kg po and 30 mg/kg po qd); animals are treated with compound for 5 days. […] Mean arterial pressure (MAP) and heart rate (HR) are collected continuously throughout the study. Statistical analyses is performed using GraphPad Prism based on the average 24-hr mean value during five days of compound administration (one-way ANOVA with Dunnett's post-test vs. Vehicle; p<0.05 is considered statistically significant).

[7] = Plasma compound exposure in rats (tail bleed, day 6); assay type: in vivo; settings: plasma, rat
Protocol: as §2

[8] = target: human recombinant Txk (full length, GST-tagged) (Homo sapiens (Human), UniProt P42681); assay: TXK Z'-LYTE assay; settings: read-out: TXK IC50, 100 μM ATP;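 further: FRET read-out of kinase phosphorylation of a synthetic peptide labelled with Coumarin and Fluorescein, scored by protease sensitivity of unphosphorylated peptide, incubated at 22 °C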
human recombinant Txk (full length, GST-tagged), sequence (P42681 whole entry): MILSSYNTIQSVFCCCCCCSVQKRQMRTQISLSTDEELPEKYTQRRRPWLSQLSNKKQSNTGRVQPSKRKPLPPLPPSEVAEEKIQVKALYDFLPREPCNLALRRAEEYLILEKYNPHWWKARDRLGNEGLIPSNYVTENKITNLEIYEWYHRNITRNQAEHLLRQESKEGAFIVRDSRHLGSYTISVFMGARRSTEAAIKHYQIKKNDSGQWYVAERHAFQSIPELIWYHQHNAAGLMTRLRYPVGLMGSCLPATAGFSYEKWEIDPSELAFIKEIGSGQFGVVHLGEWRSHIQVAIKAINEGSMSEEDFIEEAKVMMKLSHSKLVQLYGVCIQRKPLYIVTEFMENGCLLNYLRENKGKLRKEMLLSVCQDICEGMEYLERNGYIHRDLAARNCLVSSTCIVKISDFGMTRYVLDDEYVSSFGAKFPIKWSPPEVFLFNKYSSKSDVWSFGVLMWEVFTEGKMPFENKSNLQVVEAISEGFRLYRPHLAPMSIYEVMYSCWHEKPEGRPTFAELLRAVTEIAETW
Protocol: Z′-LYTE™ Assay (Life Technologies):
as §3, §4

human recombinant BTK (full length, His-tagged), sequence (Q06187 whole entry): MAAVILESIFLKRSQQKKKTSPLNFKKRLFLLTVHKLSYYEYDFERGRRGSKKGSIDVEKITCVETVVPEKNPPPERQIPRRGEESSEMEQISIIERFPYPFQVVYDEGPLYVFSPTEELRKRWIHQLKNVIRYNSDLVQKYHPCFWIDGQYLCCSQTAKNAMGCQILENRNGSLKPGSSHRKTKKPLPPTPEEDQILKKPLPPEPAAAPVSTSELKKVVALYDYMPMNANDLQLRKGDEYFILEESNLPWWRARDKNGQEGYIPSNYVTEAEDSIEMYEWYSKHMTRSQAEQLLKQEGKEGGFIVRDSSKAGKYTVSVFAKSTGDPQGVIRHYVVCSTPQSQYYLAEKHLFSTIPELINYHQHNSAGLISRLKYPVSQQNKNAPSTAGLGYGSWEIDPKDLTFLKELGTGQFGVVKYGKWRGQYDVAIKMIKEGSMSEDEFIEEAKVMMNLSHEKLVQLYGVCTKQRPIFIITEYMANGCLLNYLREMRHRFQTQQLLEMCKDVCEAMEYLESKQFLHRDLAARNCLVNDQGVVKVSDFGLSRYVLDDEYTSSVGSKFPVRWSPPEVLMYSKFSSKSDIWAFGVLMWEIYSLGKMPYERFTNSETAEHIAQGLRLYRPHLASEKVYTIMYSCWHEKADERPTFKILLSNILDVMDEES
human full length His-tagged BTK, sequence (Q06187 whole entry): as above
EGFR (EGFR phosphorylation in A431 cells), sequence (P00533 25-1210): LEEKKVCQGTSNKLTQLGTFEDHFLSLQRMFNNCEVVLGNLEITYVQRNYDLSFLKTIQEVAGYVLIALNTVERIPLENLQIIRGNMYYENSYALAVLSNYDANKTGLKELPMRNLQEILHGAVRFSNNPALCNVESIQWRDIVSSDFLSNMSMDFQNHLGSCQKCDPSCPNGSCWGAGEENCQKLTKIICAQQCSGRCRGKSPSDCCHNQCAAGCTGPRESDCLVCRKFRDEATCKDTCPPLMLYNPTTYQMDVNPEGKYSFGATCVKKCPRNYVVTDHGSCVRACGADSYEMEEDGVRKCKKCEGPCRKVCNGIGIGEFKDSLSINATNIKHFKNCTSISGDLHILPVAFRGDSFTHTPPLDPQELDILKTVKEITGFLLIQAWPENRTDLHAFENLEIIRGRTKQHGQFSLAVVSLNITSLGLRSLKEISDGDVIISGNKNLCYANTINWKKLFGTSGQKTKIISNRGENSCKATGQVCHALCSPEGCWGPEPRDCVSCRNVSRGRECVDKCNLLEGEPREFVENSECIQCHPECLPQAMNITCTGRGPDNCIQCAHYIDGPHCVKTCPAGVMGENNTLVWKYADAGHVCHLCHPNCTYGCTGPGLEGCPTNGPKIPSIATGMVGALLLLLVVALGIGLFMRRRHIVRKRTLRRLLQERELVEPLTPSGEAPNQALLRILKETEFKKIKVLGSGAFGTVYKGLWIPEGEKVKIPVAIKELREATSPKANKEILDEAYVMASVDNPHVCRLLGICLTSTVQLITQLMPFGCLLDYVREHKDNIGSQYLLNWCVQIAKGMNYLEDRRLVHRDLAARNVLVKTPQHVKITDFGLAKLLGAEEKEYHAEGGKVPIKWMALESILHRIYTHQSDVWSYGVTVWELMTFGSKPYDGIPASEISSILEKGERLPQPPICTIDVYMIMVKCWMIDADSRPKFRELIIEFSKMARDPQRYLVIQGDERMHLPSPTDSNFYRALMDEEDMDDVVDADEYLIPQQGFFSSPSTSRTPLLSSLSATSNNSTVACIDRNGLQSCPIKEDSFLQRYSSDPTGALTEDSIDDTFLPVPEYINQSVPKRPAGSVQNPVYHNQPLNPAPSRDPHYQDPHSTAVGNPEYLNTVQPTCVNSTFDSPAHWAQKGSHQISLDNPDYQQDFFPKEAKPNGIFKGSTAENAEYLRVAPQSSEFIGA
human recombinant full length TEC (His-tagged), sequence (P42680 whole entry): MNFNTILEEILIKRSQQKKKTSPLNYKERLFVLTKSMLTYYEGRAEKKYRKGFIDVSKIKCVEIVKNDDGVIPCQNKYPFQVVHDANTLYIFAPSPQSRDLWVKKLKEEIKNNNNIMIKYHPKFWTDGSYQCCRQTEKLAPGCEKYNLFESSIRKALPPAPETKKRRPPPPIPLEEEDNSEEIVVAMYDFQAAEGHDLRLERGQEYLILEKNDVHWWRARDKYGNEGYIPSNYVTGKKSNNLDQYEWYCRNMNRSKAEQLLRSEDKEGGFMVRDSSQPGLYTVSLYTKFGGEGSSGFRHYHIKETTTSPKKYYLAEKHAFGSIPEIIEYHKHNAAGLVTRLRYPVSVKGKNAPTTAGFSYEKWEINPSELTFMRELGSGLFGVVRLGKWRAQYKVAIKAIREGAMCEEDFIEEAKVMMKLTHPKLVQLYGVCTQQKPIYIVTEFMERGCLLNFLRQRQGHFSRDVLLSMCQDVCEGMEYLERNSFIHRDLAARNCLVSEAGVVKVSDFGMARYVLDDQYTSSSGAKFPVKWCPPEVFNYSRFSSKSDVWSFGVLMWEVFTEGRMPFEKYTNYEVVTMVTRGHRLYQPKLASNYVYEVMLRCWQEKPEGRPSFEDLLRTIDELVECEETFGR

SMILES | IC50 [1] | IC50 [2] | IC50 [3] | IC50 [4] | IC50 [5] | 5-Day 24-h MAP Change versus Control ([6]; 10 mg/kg) | 5-Day 24-h MAP Change versus Control ([6]; 30 mg/kg) | Cmax ([7]; 10 mg/kg po qd) | Cmax ([7]; 30 mg/kg po qd) | IC50 [8]
CC#CC(=O)N1CC[C@]2(C1)C[C@H](n1nc(-c3cnn(Cc4ccccc4C(F)(F)F)c3)c(C(N)=O)c1N)C2 [Example 12] | 0.5 nM | 0.5 nM | > 10000 nM | 1.7 nM | 92 nM | No statistically significant | No statistically significant | 111 ± 37 nM | 344 ± 106 nM | 130 nM
CC#CC(=O)N1CC[C@]2(C1)C[C@H](n1nc(-c3cnn(Cc4cccc(C(F)(F)F)c4)c3)c(C(N)=O)c1N)C2 [Example 22] | 0.3 nM | 0.8 nM | > 10000 nM | 0.7 nM | 21 nM | No statistically significant | No statistically significant | 170 ± 29 nM | 720 ± 262 nM | 46 nM
